Data from patent US11142526B2, “Spirocycle compounds and methods of making and using same” (H. Lundbeck A/S, priority 2017, dated 2021).
Like-named read-outs stand apart in the source and are kept apart here.

What was measured:
MAGL [1] = molecular target: T1, MAGL (Mus musculus (Mouse), UniProt O35678); test: In vitro competitive activity-based protein profiling, mouse brain proteome; type: biochemical; settings: for inhibition at 1 µM: mouse; for IC50: mouse brain
MAGL [2] = molecular target: T1, MAGL; test: Mouse brain proteomes from inhibitor treated mice (oral gavage, brain MAGL activity 4 h after administration); type: in vivo; settings: 5 mg/kg oral gavage
Protocol: Preparation of Mouse Brain Proteomes from Inhibitor Treated Mice.
Inhibitors were administered to wild-type C57B1/6J by oral gavage in a vehicle of polyethylene glycol.

MAGL [3] = molecular target: MAGL (Homo sapiens (Human), UniProt Q99685); test: In vitro competitive activity-based protein profiling (gel-based, FP-Rh or HT-01 probe); type: biochemical; settings: for IC50: read-out: MAGL Human PC3 (IC50)
Chain of MAGL (Homo sapiens (Human), UniProt Q99685) (Q99685 whole entry): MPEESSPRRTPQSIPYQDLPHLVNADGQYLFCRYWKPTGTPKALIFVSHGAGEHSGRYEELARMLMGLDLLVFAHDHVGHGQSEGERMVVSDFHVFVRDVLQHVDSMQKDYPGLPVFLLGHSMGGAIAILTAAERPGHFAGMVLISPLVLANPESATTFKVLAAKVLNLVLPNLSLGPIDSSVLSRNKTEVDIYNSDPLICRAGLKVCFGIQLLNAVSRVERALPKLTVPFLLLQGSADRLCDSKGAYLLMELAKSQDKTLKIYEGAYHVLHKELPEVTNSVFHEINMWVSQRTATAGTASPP
Protocol: In Vitro Competitive Activity-Based Protein Profiling.
Proteomes (human prefrontal cortex or cell membrane fractions) (50 μL, 1.0 mg/mL total protein concentration) were preincubated with varying concentrations of inhibitors at 37° C. After 30 min, FP-Rh or HT-01 (1.0 μL, 50 μM in DMSO) was added and the mixture was incubated for another 30 min at room temperature. Reactions were quenched with SDS loading buffer (15 μL—4×) and run on SDS-PAGE.

[4] = human PC3, read-out: MAGL % Inhibition at 1 μM (human PC3)
[5] = human PFC (prefrontal cortex), read-out: MAGL % Inhibition at 1 μM (human PFC)

T1 sequence (O35678 whole entry): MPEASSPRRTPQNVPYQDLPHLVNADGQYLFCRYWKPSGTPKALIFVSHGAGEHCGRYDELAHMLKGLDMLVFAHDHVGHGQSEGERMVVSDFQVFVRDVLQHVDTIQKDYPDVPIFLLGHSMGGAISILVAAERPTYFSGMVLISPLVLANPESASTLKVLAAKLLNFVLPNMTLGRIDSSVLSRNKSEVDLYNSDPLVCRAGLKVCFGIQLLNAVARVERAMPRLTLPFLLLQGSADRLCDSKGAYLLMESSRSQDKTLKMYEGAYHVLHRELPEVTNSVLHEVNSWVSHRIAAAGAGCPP

| Compound | inhibition at 1 µM (MAGL [1]) | inhibition at 1 µM (MAGL [3]; [4]) | inhibition at 1 µM (MAGL [3]; [5]) | IC50 (MAGL [3]; human PC3) | IC50 (MAGL [1]) | MAGL % Inhibition at 5 mg/kg (Mouse) (MAGL [2]) |
| --- | --- | --- | --- | --- | --- | --- |
| O=C(OC(C(F)(F)F)C(F)(F)F)N1CCC2(CCCN2C(=O)C2(c3ncc(Cl)cn3)CC2)CC1 [Example 31, 1,1,1,3,3,3-Hexafluoropropan-2-yl 1-(1-(5-chloropyrimidin-2-yl)cyclopropane-1-carbonyl)-1,8-diazaspiro[4.5]decane-8-carboxylate] | > 75% | > 75% | > 75% | < 0.1 µM |  | ### (% inhibition is greater than or equal to 75%) |
| O=C(OC(C(F)(F)F)C(F)(F)F)N1CCC2(CCCN2C(=O)C2(c3cnc(C4CC4)nc3)CC2)CC1 [Example 38, 1,1,1,3,3,3-Hexafluoropropan-2-yl 1-(1-(2-cyclopropylpyrimidin-5-yl)cyclopropane-1-carbonyl)-1,8-diazaspiro[4.5]decane-8-carboxylate] | > 75% | > 75% | > 75% | < 0.1 µM |  | ### (% inhibition is greater than or equal to 75%) |
| O=C(OC(C(F)(F)F)C(F)(F)F)N1CCC2(CCCN2Cc2cc(-c3ccc(F)cc3)on2)CC1 [Example 39, 1,1,1,3,3,3-Hexafluoropropan-2-yl 1-((5-(4-fluorophenyl)isoxazol-3-yl)methyl)-1,8-diazaspiro[4.5]decane-8-carboxylate] | > 75% |  |  | < 0.1 µM | < 0.1 µM | ### (% inhibition is greater than or equal to 75%) |
| O=C(OC(C(F)(F)F)C(F)(F)F)N1CCC2(CCCN2Cc2cc3cc(Cl)ccc3s2)CC1 [Example 40, 1,1,1,3,3,3-Hexafluoropropan-2-yl 1-((5-chlorobenzo[b]thiophen-2-yl)methyl)-1,8-diazaspiro[4.5] decane-8-carboxylate] | > 75% |  |  | < 0.1 µM | < 0.1 µM | ### (% inhibition is greater than or equal to 75%) |
| Cc1ccc2nc(Cl)c(CN3CCCC34CCN(C(=O)OC(C(F)(F)F)C(F)(F)F)CC4)cc2c1 [Example 49, 1,1,1,3,3,3-Hexafluoropropan-2-yl 1-((2-chloro-6-methylquinolin-3-yl)methyl)-1,8-diazaspiro[4.5] decane-8-carboxylate] | > 75% |  |  | < 0.1 µM | < 0.1 µM | ### (% inhibition is greater than or equal to 75%) |
| O=C(OC(C(F)(F)F)C(F)(F)F)N1CCC2(CCCN2Cc2ccc3cc(F)ccc3n2)CC1 [Example 56, 1,1,1,3,3,3-Hexafluoropropan-2-yl 1-((6-fluoroquinolin-2-yl)methyl)-1,8-diazaspiro[4.5] decane-8-carboxylate] | > 75% |  |  | < 0.1 µM | < 0.1 µM | ### (% inhibition is greater than or equal to 75%) |
| Cc1c(CN2CCCC23CCN(C(=O)OC(C(F)(F)F)C(F)(F)F)CC3)[nH]c2ccc(F)cc12 [Example 58, 1,1,1,3,3,3-Hexafluoropropan-2-yl 1-((5-fluoro-3-methyl-1H-indol-2-yl)methyl)-1,8-diazaspiro[4.5] decane-8-carboxylate] | > 75% |  |  | < 0.1 µM | < 0.1 µM | ### (% inhibition is greater than or equal to 75%) |
| O=C(OC(C(F)(F)F)C(F)(F)F)N1CCC2(CCCN2C(=O)c2cc3ccc(Cl)cc3s2)CC1 [Example 60, 1,1,1,3,3,3-Hexafluoropropan-2-yl 1-(6-chlorobenzo[b]thiophene-2-carbonyl)-1,8-diazaspiro[4.5] decane-8-carboxylate] | > 75% |  |  | < 0.1 µM | < 0.1 µM | ### (% inhibition is greater than or equal to 75%) |
| CN(Cc1cc2cc(Cl)ccc2s1)C1(C)CCN(C(=O)OC(C(F)(F)F)C(F)(F)F)CC1 [Example 62, 1,1,1,3,3,3-Hexafluoropropan-2-yl 4-(((5-chlorobenzo[b]thiophen-2-yl)methyl)(methyl)amino)-4-methylpiperidine-1-carboxylate] | > 75% |  |  | < 0.1 µM | < 0.1 µM | ### (% inhibition is greater than or equal to 75%) |
| O=C(O)C1CCN(c2nc(C(F)(F)F)ccc2CN2CCCC23CCN(C(=O)OC(C(F)(F)F)C(F)(F)F)CC3)CC1 [Example 123, 1-(3-((8-(((1,1,1,3,3,3-Hexafluoropropan-2-yl)oxy)carbonyl)-1,8-diazaspiro[4.5]decan-1-yl)methyl)-6-(trifluoromethyl)pyridin-2-yl)piperidine-4-carboxylic acid] | > 75% |  | > 75% | < 0.1 µM |  | ### (% inhibition is greater than or equal to 75%) |
| Cc1nc2ccc(Cl)nn2c1C(=O)N1CCCC12CCN(C(=O)OC(C(F)(F)F)C(F)(F)F)CC2 [Example 142, 1,1,1,3,3,3-Hexafluoropropan-2-yl 1-(6-chloro-2-methylimidazo[1,2-b]pyridazine-3-carbonyl)-1,8-diazaspiro[4.5] decane-8-carboxylate] | > 75% | > 75% | > 75% | < 0.1 µM |  | ### (% inhibition is greater than or equal to 75%) |

Continued, in another order:

| inhibition at 1 µM (MAGL [1]) | inhibition at 1 µM (MAGL [3]; [4]) | inhibition at 1 µM (MAGL [3]; [5]) | IC50 (MAGL [3]; human PC3) | IC50 (MAGL [1]) | Compound | MAGL % Inhibition at 5 mg/kg (Mouse) (MAGL [2]) |
| --- | --- | --- | --- | --- | --- | --- |
| > 75% | > 75% | > 75% | < 0.1 µM |  | CN(C(=O)c1nnc2n1CCN(C1CC1)C2)C1(C)CCN(C(=O)OC(C(F)(F)F)C(F)(F)F)CC1 [Example 20, 1,1,1,3,3,3-hexafluoropropan-2-yl 4-(7-cyclopropyl-N-methyl-5,6,7,8-tetrahydro-[1,2,4]triazolo[4,3-a]pyrazine-3-carboxamido)-4-methylpiperidine-1-carboxylate] | ### (% inhibition is greater than or equal to 75%) |
| > 75% | > 75% | > 75% | < 0.1 µM |  | CC(C)(O)CN1CCn2cc(C(=O)N3CCCC34CCN(C(=O)OC(C(F)(F)F)C(F)(F)F)CC4)nc2C1 [Example 21, 1,1,1,3,3,3-Hexafluoropropan-2-yl 1-(7-(2-hydroxy-2-methylpropyl)-5,6,7,8-tetrahydroimidazo[1,2-a]pyrazine-2-carbonyl)-1,8-diazaspiro[4.5]decane-8-carboxylate] | # (% inhibition less or equal to 25%) |
| > 75% | > 75% | > 75% | < 0.1 µM |  | CC(C)C(=O)N1CCn2cc(C(=O)NC3(C)CCN(C(=O)OC(C(F)(F)F)C(F)(F)F)CC3)nc2C1 [Example 37, 1,1,1,3,3,3-Hexafluoropropan-2-yl 4-(7-isobutyryl-5,6,7,8-tetrahydroimidazo[1,2-a]pyrazine-2-carboxamido)-4-methylpiperidine-1-carboxylate] | # (% inhibition less or equal to 25%) |
| > 75% |  |  | < 0.1 µM | < 0.1 µM | Cc1cc(C)c2[nH]c(C(=O)N3CCCC34CCN(C(=O)OC(C(F)(F)F)C(F)(F)F)CC4)c(C)c2c1 [Example 63, 1,1,1,3,3,3-Hexafluoropropan-2-yl 1-(3,5,7-trimethyl-1H-indole-2-carbonyl)-1,8-diazaspiro[4.5] decane-8-carboxylate] | ### (% inhibition is greater than or equal to 75%) |
| > 75% |  | > 75% | < 0.1 µM |  | Cn1cc(Cl)c(C(=O)N2CCCC23CCN(C(=O)OC(C(F)(F)F)C(F)(F)F)CC3)n1 [Example 120, 1,1,1,3,3,3-Hexafluoropropan-2-yl 1-(4-chloro-1-methyl-1H-pyrazole-3-carbonyl)-1,8-diazaspiro[4.5] decane-8-carboxylate] | ### (% inhibition is greater than or equal to 75%) |
| > 75% | > 75% | > 75% | < 0.1 µM |  | Cc1nc2cccnn2c1C(=O)N1CCCC12CCN(C(=O)OC(C(F)(F)F)C(F)(F)F)CC2 [Example 143, 1,1,1,3,3,3-Hexafluoropropan-2-yl 1-(2-methyl-imidazo[1,2-b]pyridazine-3-carbonyl)-1,8-diazaspiro[4.5] decane-8-carboxylate] | ### (% inhibition is greater than or equal to 75%) |
| > 75% | > 75% | > 75% | < 0.1 µM |  | O=C(OC(C(F)(F)F)C(F)(F)F)N1CCC2(CCCN2C(=O)c2cnn3c2CCCC3)CC1 [Example 148, 1.1,1,3,3,3-Hexafluoropropan-2-yl 1-(4,5,6,7-tetrahydropyrazolo [1,5-a]pyridine-3-carbonyl)-1,8-diazaspiro[4.5] decane-8-carboxylate] | ### (% inhibition is greater than or equal to 75%) |
| > 75% | > 75% | > 75% |  |  | O=C(OC(C(F)(F)F)C(F)(F)F)N1CCC2(CCCN2C(=O)c2cc3nc(Cl)ccn3n2)CC1 [Example 151, 1,1,1,3,3,3-Hexafluoropropan-2-yl 1-(5-chloropyrazolo[1,5-a]pyrimidine-2-carbonyl)-1,8-diazaspiro[4.5] decane-8-carboxylate] | ## (% inhibition is less than 75% and greater than 25%) |
